Among the data in publication PMC4933562, “Bile salt receptor complex activates a pathogenic type III secretion system” (eLife, 2016) are Kd and stoichiometry N (VtrA per VtrC) values, retold here.

In assay [1] the target is T1, VtrC (VPA1333) (Vibrio parahaemolyticus, UniProt Q87GI3+Q87GI4).
T1 construct: periplasmic domains: VtrC aa 31–161 (N-terminal His-tagged) co-expressed with VtrA aa 161–253; with VtrA (VPA1332), periplasmic domain aa 161–253, obligate 1:1 heterodimer
As to the kind of experiment: ITC (n = […]) and […] Å co-crystal structure. Format: binding.

For assay [2], the target named is N-terminal His-tagged VtrC periplasmic domain (aa 31-161) (Vibrio parahaemolyticus). The assay is described as follows: SEC.

For the molecule `C[C@H](CCC(=O)NCCS(=O)(=O)O)[C@H]1CC[C@H]2[C@@H]3CC[C@@H]4C[C@H](O)CC[C@]4(C)[C@H]3C[C@H](O)[C@]12C` [TDC, taurodeoxycholate], the Kd in assay [1] turned out to be 0.315 µM.

In assay [2], “VtrA periplasmic domain (aa 161-253), co-expressed with VtrC (domain or fragment)” gave a stoichiometry N (VtrA per VtrC) of 1.
